From ChEMBL document CHEMBL3611970, “Synthesis and evaluation of isatin-β-thiosemicarbazones as novel agents against antibiotic-resistant Gram-positive bacterial species” (2015)
Converted amounts (≈) assume the structure as drawn.

Experiments:
Format in all cases: functional
Staphylococcus aureus [1] = experiment: Antimicrobial activity against Staphylococcus aureus ATCC 6538 after 16 hrs by broth microdilution method; conditions: ATCC 6538, 16 h
Bacillus spizizenii = experiment: Antimicrobial activity against Bacillus subtilis ATCC 6633 after 16 hrs by broth microdilution method; conditions: ATCC 6633, 16 h
Staphylococcus aureus [2] = experiment: Antimicrobial activity against methicillin-resistant Staphylococcus aureus Chaoyang clinical isolate after 16 hrs by broth microdilution method
Enterococcus faecalis [3] = experiment: Antimicrobial activity against Enterococcus faecalis VRE-309 after 16 hrs by broth microdilution method; conditions: VRE-309, 16 h
Pseudomonas aeruginosa = experiment: Antimicrobial activity against Pseudomonas aeruginosa PAO1 after 16 hrs by broth microdilution method; conditions: PAO1, 16 h
Staphylococcus aureus [4] = experiment: Antimicrobial activity against methicillin-resistant Staphylococcus aureus 309-6 clinical isolate after 16 hrs by broth microdilution method; conditions: 309-6, 16 h
Klebsiella pneumoniae = experiment: Antimicrobial activity against Klebsiella pneumoniae KP-249 clinical isolate after 16 hrs by broth microdilution method; conditions: KP-249, 16 h
Staphylococcus aureus [5] = experiment: Antimicrobial activity against methicillin-resistant Staphylococcus aureus 309-8 clinical isolate after 16 hrs by broth microdilution method; conditions: 309-8, 16 h
Staphylococcus aureus [6] = experiment: Antimicrobial activity against methicillin-resistant Staphylococcus aureus 6-42 clinical isolate after 16 hrs by broth microdilution method; conditions: 6-42, 16 h
Staphylococcus aureus [7] = experiment: Antimicrobial activity against methicillin-resistant Staphylococcus aureus 8-21 clinical isolate after 16 hrs by broth microdilution method; conditions: 8-21, 16 h
Staphylococcus aureus [8] = experiment: Antimicrobial activity against methicillin-resistant Staphylococcus aureus 6281 clinical isolate after 16 hrs by broth microdilution method; conditions: Staphylococcus aureus, 6281, 16 h
Staphylococcus aureus [9] = experiment: Antimicrobial activity against methicillin-resistant Staphylococcus aureus 8-24 clinical isolate after 16 hrs by broth microdilution method; conditions: 8-24, 16 h
Staphylococcus aureus [10] = experiment: Antimicrobial activity against methicillin-resistant Staphylococcus aureus 309-4 clinical isolate after 16 hrs by broth microdilution method; conditions: 309-4, 16 h
Staphylococcus aureus [11] = experiment: Antimicrobial activity against methicillin-resistant Staphylococcus aureus 309-7 clinical isolate after 16 hrs by broth microdilution method; conditions: 309-7, 16 h
Staphylococcus aureus [12] = experiment: Antimicrobial activity against methicillin-resistant Staphylococcus aureus 309-1 clinical isolate after 16 hrs by broth microdilution method; conditions: 309-1, 16 h
Staphylococcus aureus [13] = experiment: Antimicrobial activity against methicillin-resistant Staphylococcus aureus 309-3 clinical isolate after 16 hrs by broth microdilution method; conditions: 309-3, 16 h
Enterococcus faecalis [14] = experiment: Antimicrobial activity against vancomycin-susceptible Enterococcus faecalis after 16 hrs by broth microdilution method

SMILES | MIC (Staphylococcus aureus [1]) [µg/mL] | MIC (Bacillus spizizenii) [µg/mL] | MIC (Staphylococcus aureus [2]) [µg/mL] | MIC (Enterococcus faecalis [3]) [µg/mL] | MIC (Pseudomonas aeruginosa) [µg/mL] | MIC (Staphylococcus aureus [4]) [µg/mL] | MIC (Klebsiella pneumoniae) [µg/mL] | MIC (Staphylococcus aureus [5]) [µg/mL] | MIC (Staphylococcus aureus [6]) [µg/mL] | MIC (Staphylococcus aureus [7]) [µg/mL] | MIC (Staphylococcus aureus [8]) [µg/mL] | MIC (Staphylococcus aureus [9]) [µg/mL] | MIC (Staphylococcus aureus [10]) [µg/mL] | MIC (Staphylococcus aureus [11]) [µg/mL] | MIC (Staphylococcus aureus [12]) [µg/mL] | MIC (Staphylococcus aureus [13]) [µg/mL] | MIC (Enterococcus faecalis [14]) [µg/mL]
O=C1Nc2ccccc2/C1=N/NC(=S)Nc1ccccc1 | 3.12 (≈ 10.5 µM) | 1.56 (≈ 5.26 µM) | 3.12 (≈ 10.5 µM) |  |  |  |  |  |  |  |  |  |  |  |  |  | 
O=C1Nc2ccccc2/C1=N/NC(=S)Nc1ccc(F)cc1 | 6.25 (≈ 19.9 µM) | 1.56 (≈ 4.96 µM) | 3.12 (≈ 9.93 µM) |  |  |  |  |  |  |  |  |  |  |  |  |  | 
O=C1Nc2ccc(Br)cc2/C1=N/NC(=S)Nc1ccccc1 | 6.25 (≈ 16.7 µM) | ≤ 0.78 | 6.25 (≈ 16.7 µM) |  |  |  |  |  |  |  |  |  |  |  |  |  | 
O=C1Nc2ccc([N+](=O)[O-])cc2/C1=N/NC(=S)Nc1ccc(F)cc1 | 6.25 (≈ 17.4 µM) | 25 (≈ 69.6 µM) | 12.5 (≈ 34.8 µM) |  |  |  |  |  |  |  |  |  |  |  |  |  | 
O=C1Nc2ccc(F)cc2/C1=N/NC(=S)Nc1ccc(F)cc1 | 25 (≈ 75.2 µM) | 25 (≈ 75.2 µM) | 25 (≈ 75.2 µM) |  |  |  |  |  |  |  |  |  |  |  |  |  | 
O=C1Nc2c(F)cccc2/C1=N/NC(=S)Nc1ccccc1 | 3.12 (≈ 9.93 µM) | ≤ 0.78 | 1.56 (≈ 4.96 µM) |  |  |  |  |  |  |  |  |  |  |  |  |  | 
O=C1Nc2ccc(Cl)cc2/C1=N/NC(=S)Nc1ccc(F)cc1 | 12.5 (≈ 35.8 µM) | 6.25 (≈ 17.9 µM) | 3.12 (≈ 8.95 µM) |  |  |  |  |  |  |  |  |  |  |  |  |  | 
O=C1Nc2c(Br)cc([N+](=O)[O-])cc2/C1=N/NC(=S)Nc1ccc(F)cc1 | 1.56 (≈ 3.56 µM) | ≤ 0.78 | 3.12 (≈ 7.12 µM) |  |  |  |  |  |  |  |  |  |  |  |  |  | 
O=C1Nc2c(Br)cc(Br)cc2/C1=N/NC(=S)Nc1ccc(F)cc1 | 12.5 (≈ 26.5 µM) | 1.56 (≈ 3.3 µM) | 6.25 (≈ 13.2 µM) |  |  |  |  |  |  |  |  |  |  |  |  |  | 
O=C1Nc2c(F)cccc2/C1=N/NC(=S)Nc1cccc(F)c1 | 0.78 (≈ 2.35 µM) | ≤ 0.78 | 0.39 (≈ 1.17 µM) | 1.56 (≈ 4.69 µM) | > 100 | 1.56 (≈ 4.69 µM) | > 100 | 0.78 (≈ 2.35 µM) | 0.39 (≈ 1.17 µM) | 0.78 (≈ 2.35 µM) | 1.56 (≈ 4.69 µM) | 0.78 (≈ 2.35 µM) | 0.39 (≈ 1.17 µM) | 0.39 (≈ 1.17 µM) | 0.78 (≈ 2.35 µM) | 0.78 (≈ 2.35 µM) | 
O=C1Nc2c(I)cccc2/C1=N/NC(=S)Nc1ccccc1F | 3.12 (≈ 7.09 µM) | ≤ 0.78 | 0.78 (≈ 1.77 µM) | 6.25 (≈ 14.2 µM) | > 100 | 3.12 (≈ 7.09 µM) | > 100 | 1.56 (≈ 3.54 µM) | 0.78 (≈ 1.77 µM) | 1.56 (≈ 3.54 µM) | 6.25 (≈ 14.2 µM) | 1.56 (≈ 3.54 µM) | 1.56 (≈ 3.54 µM) | 0.78 (≈ 1.77 µM) | 1.56 (≈ 3.54 µM) | 3.12 (≈ 7.09 µM) | 12.5 (≈ 28.4 µM)
COc1ccccc1NC(=S)N/N=C1\C(=O)Nc2c(I)cccc21 | > 100 | 1.56 (≈ 3.45 µM) | 6.25 (≈ 13.8 µM) | > 100 | > 100 | 25 (≈ 55.3 µM) | > 100 | 12.5 (≈ 27.6 µM) | 6.25 (≈ 13.8 µM) | 12.5 (≈ 27.6 µM) | 25 (≈ 55.3 µM) | 12.5 (≈ 27.6 µM) | 12.5 (≈ 27.6 µM) | 6.25 (≈ 13.8 µM) | 12.5 (≈ 27.6 µM) | 25 (≈ 55.3 µM) | > 100
Cc1ccccc1NC(=S)N/N=C1\C(=O)Nc2c(I)cccc21 | 3.12 (≈ 7.15 µM) | ≤ 0.78 | 0.78 (≈ 1.79 µM) | 6.25 (≈ 14.3 µM) | > 100 | 6.25 (≈ 14.3 µM) | > 100 | 3.12 (≈ 7.15 µM) | 0.78 (≈ 1.79 µM) | 1.56 (≈ 3.58 µM) | 6.25 (≈ 14.3 µM) | 3.12 (≈ 7.15 µM) | 1.56 (≈ 3.58 µM) | 1.56 (≈ 3.58 µM) | 3.12 (≈ 7.15 µM) | 3.12 (≈ 7.15 µM) | 12.5 (≈ 28.7 µM)
